Measured values from patent US7927613B2, “Pharmaceutical co-crystal compositions” (University of South Florida, priority 2002, dated 2011).

How the values were obtained:
[1] = Dissolution profile; assay type: physicochemical; conditions: vs. itraconazole free base (FIG. 28)
Source text: In another aspect of the present invention, the dissolution profile of the API is modulated whereby the aqueous dissolution rate or the dissolution rate in simulated gastric fluid or in simulated intestinal fluid, or in a solvent or plurality of solvents is increased. Dissolution rate is the rate at which API solids dissolve in a dissolution medium. For APIs whose absorption rates are faster than the dissolution rates (e.g., steroids), the rate-limiting step in the absorption process is often the dissolution rate. Because of a limited residence time at the absorption site, APIs that are not dissolved before they are removed from intestinal absorption site are considered useless. Therefore, the rate of dissolution has a major impact on the performance of APIs that are poorly soluble. Because of this factor, the dissolution rate of APIs in solid dosage forms is an important, routine, quality control parameter used in the API manufacturing process. […] For rapid API absorption, Cs−C is approximately equal to Cs The dissolution rate of APIs may be measured by conventional means known in the art. […] Conditions under which the dissolution rate is measured is the same as discussed above The increase in dissolution may be further specified by the time the composition remains supersaturated before reaching equilibrium solubility.

Row | Compound | melting point | dissolution profile [1]
1 | CCOc1ccc(NC(N)=O)cc1 [4-ethoxyphenyl urea] | 173 to 174 °C | 
2 | itraconazole and malic acid [itraconazole:malic acid] |  | modulated dissolution profile
